Experiment [1] relates to SW620 cells (KRAS G12V). As to the kind of experiment: Cell viability assay (Cell Counting Kit-8, 3-day). Conditions: Homo sapiens, SW-620; SW620, 72 hrs incubation. Format: cell-based, human. An outline of the steps:
(§1)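 IC50 derived by 4-parameter sigmoidal fit of CCK-8 signal (OD450−OD650, 2 h development) after 72 h compound exposure in 0.5% DMSO. Seeding density was 5,000 cells/well for NCI-H358 and 2,000 cells/well for AGS and SW620, plated overnight before dosing.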
(In general: Tetrazolium assays rely on reduction of a dye to a coloured formazan, in cell work by metabolically active cells.)

In experiment [2] the test system is NCI-H358 cells (KRAS G12C). As to the kind of experiment: Cell viability assay (Cell Counting Kit-8, 3-day). Conditions: Homo sapiens, NCI-H358, 72 h, NCI-H358, 72 hrs incubation. Format: cell-based, human. An outline of the steps: as §1
For experiment [3], the system named is AGS cells (KRAS G12D). Kind of experiment: Cell viability assay (Cell Counting Kit-8, 3-day). The class given is cell-based, human. The conditions noted are these: Homo sapiens, 72 h, 72 hrs incubation. Put shortly:
as §1

For experiment [4], the target named is KRAS G12C-BRAF complex (Homo sapiens (Human), UniProt P01116+P62937, G12C). Kind of experiment: KRAS-BRAF with CYPA (500 nM) interaction assay (TR-FRET, Example 136). Format: biochemical. Conditions: KRAS G12C-BRAF disruption.
KRAS G12C-BRAF complex, sequence (P01116-2 other isoform, or with tags, fused parts or gaps G12C): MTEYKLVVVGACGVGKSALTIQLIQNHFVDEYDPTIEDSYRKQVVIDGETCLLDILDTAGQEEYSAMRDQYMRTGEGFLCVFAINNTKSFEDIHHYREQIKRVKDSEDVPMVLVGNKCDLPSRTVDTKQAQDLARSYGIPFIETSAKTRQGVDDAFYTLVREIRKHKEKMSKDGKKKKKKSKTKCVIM
KRAS G12C-BRAF complex, sequence (P62937 whole entry): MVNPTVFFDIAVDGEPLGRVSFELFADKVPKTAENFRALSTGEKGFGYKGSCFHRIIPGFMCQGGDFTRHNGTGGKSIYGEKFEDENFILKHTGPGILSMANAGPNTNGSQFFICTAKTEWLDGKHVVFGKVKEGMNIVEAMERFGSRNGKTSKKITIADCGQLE
Experiment [5] deals with phosphorylation of ERK, KRAS G12V in SW620. As to the kind of experiment: pERK inhibition assay. The class given is cell-based. The conditions noted are these: Homo sapiens, SW-620, 4 h, SW620 cells. An outline of the steps:
(§2)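 Cells in RPMI-1640 with 10% FBS were plated overnight (30,000/well H358, 20,000 AGS, 30,000 SW620) and treated 4 h with compounds at 0.5% DMSO. After formaldehyde fixation and methanol permeabilization, pERK was detected by in-cell ELISA with HRP secondary and TMB (OD450); IC50 from 4-parameter fit.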

For experiment [6], the system named is phosphorylation of ERK, KRAS G12D in AGS cells. As to the kind of experiment: pERK inhibition assay. Format: cell-based. The conditions noted are these: Homo sapiens, AGS, 4 h. An outline of the steps: as §2
Experiment [7] deals with phosphorylation of ERK, KRAS G12C in NCI-H358 cells. Kind of experiment: pERK inhibition assay. The class given is cell-based. The conditions noted are these: Homo sapiens, NCI-H358, 4 h. Put shortly: as §2

A word on the IC50: it is the midpoint of a concentration-inhibition curve. Low values mean inhibition by little substance, high ones a need for much substance. For `CO[C@@H](C)c1ncc(N2CCN(C)CC2)cc1-c1c2c3cc(cc4c3n1CCO4)-c1csc(n1)C[C@H](NC(=O)[C@H]1C[C@@H]1c1ccccc1)C(=O)N1CCC[C@H](N1)C(=O)OCC(C)(C)C2` (atropisomer, axis not shown; (M)) [Example 51, (1S,2S)-N-[(7S,13S)-(20M)-20-[2-[(1S)-1-methoxyethyl]-5-(4-methylpiperazin-1-yl)-3-pyridyl]-17,17-dimethyl-8,14-dioxo-15,24-dioxa-4-thia-9,21,30,31-tetrazahexacyclo[23.3.1.1^2,5.1^9,13.0^19,27.0^21,26]hentriaconta-1 (29),2,5 (31), 19,25,27-hexaen-7-yl]-2-phenyl-cyclopropanecarboxamide], the IC50 in experiment [1] is 1.4 nM; in experiment [2], 5.9 nM; in experiment [3], 13.3 nM; in experiment [4] it was 21.1 nM; in experiment [5] it was 0.7 nM; in experiment [6] it was 4.8 nM. Further, the IC50 in experiment [7] was found to be 1 nM.
`CO[C@@H](C)c1ncc(N2CCN(C)CC2)cc1-c1c2c3cc(cc4c3n1CCO4)-c1csc(n1)C[C@H](NC(=O)[C@@H]1[C@@H]3COC[C@@H]31)C(=O)N1CCC[C@H](N1)C(=O)OCC(C)(C)C2` (atropisomer, axis not shown; (M)) [Example 52, (1R,5S,6s)-N-[(7S,13S)-(20M)-20-[2-[(1S)-1-methoxyethyl]-5-(4-methylpiperazin-1-yl)-3-pyridyl]-17,17-dimethyl-8,14-dioxo-15,24-dioxa-4-thia-9,21,30,31-tetrazahexacyclo[23.3.1.1^2,5.1^9,13.0^19,27.0^21,26]hentriaconta-1 (28),2,5 (31), 19,25 (29),26-hexaen-7-yl]-3-oxabicyclo[3.1.0]hexane-6-carboxamide]: the 50% inhibitory concentration (IC50) in experiment [1] amounted to 1.1 nM; in experiment [2] it was 7 nM; in experiment [3], 12 nM; in experiment [4], 16.1 nM; in experiment [5], 0.7 nM; in experiment [6], 5.1 nM. Further, 1.4 nM corresponded to half-maximal inhibition in experiment [7] (IC50).
As to `CO[C@@H](C)c1ncc(N2CCN(C)CC2)cc1-c1c2c3cc(cc4c3n1CCC4)-c1csc(n1)C[C@H](NC(=O)[C@H]1C[C@@H]1c1cccnc1)C(=O)N1CCC[C@H](N1)C(=O)OCC(C)(C)C2` (atropisomer, axis not shown; (M)) [Example 56, (1S,2S)-N-[(7S,13S)-(20M)-20-[2-[(1S)-1-methoxyethyl]-5-(4-methylpiperazin-1-yl)-3-pyridyl]-17,17-dimethyl-8,14-dioxo-15-oxa-4-thia-9,21,30,31-tetrazahexacyclo[23.3.1.1^2,5.1^9,13.0^19,27.0^21,26]hentriaconta-1 (28),2,5 (31), 19,25 (29),26-hexaen-7-yl]-2-(3-pyridyl)cyclopropanecarboxamide], the IC50 in experiment [1] is 0.3 nM; in experiment [2] it was 1.2 nM; in experiment [3] it was 5.2 nM; in experiment [4] it was 10.3 nM; in experiment [5], 0.6 nM; in experiment [6] it was 2.7 nM. Further, the midpoint of inhibition in experiment [7], the IC50, lay at 0.8 nM.
With `CO[C@@H](C)c1ncc(N2CCN(C)CC2)cc1-c1c2c3cc(cc4c3n1CC(F)(F)C4)-c1csc(n1)C[C@H](NC(=O)[C@H]1[C@@H]3COC[C@@H]31)C(=O)N1CCC[C@H](N1)C(=O)OCC(C)(C)C2` (atropisomer, axis not shown; (M)) [Example 60], the IC50 in experiment [1] was 1.7 nM; in experiment [2] it was 8.2 nM; in experiment [3], 32 nM; in experiment [4], 15.2 nM; in experiment [5], 0.9 nM; in experiment [6], 8.2 nM. This molecule also had a 50% inhibitory concentration (IC50) in experiment [7] of 2.3 nM.
Take `CO[C@@H](C)c1ncc(N2CCOCC2)cc1-c1c2c3cc(cc4c3n1CC(C)(C)O4)-c1csc(n1)C[C@H](NC(=O)[C@H]1[C@H](C)[C@@H]1C)C(=O)N1CCC[C@H](N1)C(=O)OCC(C)(C)C2` (atropisomer, axis not shown; (M)) [Example 61, (1r,2R,3S)-N-[(7S,13S)-(20M)-20-[2-[(1S)-1-methoxyethyl]-5-morpholino-3-pyridyl]-17,17,23,23-tetramethyl-8,14-dioxo-15,24-dioxa-4-thia-9,21,30,31-tetrazahexacyclo[23.3.1.1^2,5.1^9,13.0^19,27.0^21,26]hentriaconta-1 (28),2,5 (31), 19,25 (29),26-hexaen-7-yl]-2,3-dimethyl-cyclopropanecarboxamide]: the IC50 came to 3 nM in experiment [1]; 22.6 nM in experiment [2]; 33.4 nM in experiment [3]; 50.9 nM in experiment [4]; 1.1 nM in experiment [5]; 10.3 nM in experiment [6]. In experiment [7], this molecule returned an IC50 of 8.5 nM.
`CO[C@@H](C)c1ncc(N2CCN(C)CC2)cc1-c1c2c3cc(cc4c3n1CCC4)-c1csc(n1)C[C@H](NC(=O)[C@H]1C[C@@H]1c1cccnn1)C(=O)N1CCC[C@H](N1)C(=O)OCC(C)(C)C2` (atropisomer, axis not shown; (M)) [Example 63, (1S,2S)-N-[(7S,13S)-(20M)-20-[2-[(1S)-1-methoxyethyl]-5-(4-methylpiperazin-1-yl)-3-pyridyl]-17,17-dimethyl-8,14-dioxo-15-oxa-4-thia-9,21,30,31-tetrazahexacyclo[23.3.1.1^2,5.1^9,13.0^19,27.0^21,26]hentriaconta-1 (28),2,5 (31), 19,25 (29),26-hexaen-7-yl]-2-pyridazin-3-yl-cyclopropanecarboxamide]: the concentration for half-maximal inhibition (IC50) in experiment [1] turned out to be 4.2 nM; in experiment [2], 10.6 nM; in experiment [3] it was 78 nM; in experiment [4] it was 34 nM; in experiment [5] it was 3 nM; in experiment [6], 18.3 nM. Further, in experiment [7], inhibition was half-maximal at 5.1 nM (IC50).
On to `CO[C@@H](C)c1ncc(N2CCN(C)CC2)cc1-c1c2c3cc(cc4c3n1CCO4)-c1csc(n1)C[C@H](NC(=O)[C@@H]1C[C@H]1C1CC1)C(=O)N1CCC[C@H](N1)C(=O)OCC(C)(C)C2` (atropisomer, axis not shown; (M)) [Example 64, (1R,2S)-2-cyclopropyl-N-[(7S,13S)-(20M)-20-[2-[(1S)-1-methoxyethyl]-5-(4-methylpiperazin-1-yl)-3-pyridyl]-17,17-dimethyl-8,14-dioxo-15,24-dioxa-4-thia-9,21,30,31-tetrazahexacyclo[23.3.1.1^2,5.1^9,13.0^19,27.0^21,26]hentriaconta-1 (29),2,5 (31), 19,25,27-hexaen-7-yl]cyclopropanecarboxamide], for which the IC50 in experiment [1] came to 1.3 nM; in experiment [2] it was 8 nM; in experiment [3], 21.9 nM; in experiment [4], 17.2 nM; in experiment [5], 0.6 nM; in experiment [6], 3.7 nM. Also, half-maximal inhibition in experiment [7] (IC50) required 1.2 nM.
Consider `CO[C@@H](C)c1ncc(N2CCOCC2)cc1-c1c2c3cc(cc4c3n1CCO4)-c1csc(n1)C[C@H](NC(=O)[C@H]1[C@H](C)[C@@H]1C)C(=O)N1CCC[C@H](N1)C(=O)OCC(C)(C)C2` (atropisomer, axis not shown; (M)) [Example 68, (1r,2R,3S)-N-[(7S,13S)-(20M)-20-[2-[(1S)-1-methoxyethyl]-5-morpholino-3-pyridyl]-17,17-dimethyl-8,14-dioxo-15,24-dioxa-4-thia-9,21,30,31-tetrazahexacyclo[23.3.1.1^2,5.1^9,13.0^19,27.0^21,26]hentriaconta-1 (29),2,5 (31),19,25,27-hexaen-7-yl]-2,3-dimethyl-cyclopropanecarboxamide], for which the IC50 in experiment [1] was 0.5 nM; in experiment [2], 3.2 nM; in experiment [3], 7.8 nM; in experiment [4] it was 16.8 nM; in experiment [5] it was 0.3 nM; in experiment [6], 3.9 nM. The molecule also gave an IC50 in experiment [7] of 0.2 nM.
Turning to `CO[C@@H](C)c1ncc(N2CCN(C)CC2)cc1-c1c2c3cc(cc4c3n1CC(C)(C)C4)-c1csc(n1)C[C@H](NC(=O)[C@H]1[C@H](C)[C@@H]1C)C(=O)N1CCC[C@H](N1)C(=O)OCC(C)(C)C2` (atropisomer, axis not shown; (M)) [Example 69, (1r,2S,3R)-N-[(7S,13S)-(20M)-20-[2-[(1S)-1-methoxyethyl]-5-(4-methylpiperazin-1-yl)-3-pyridyl]-17,17,23,23-tetramethyl-8,14-dioxo-15-oxa-4-thia-9,21,30,31-tetrazahexacyclo[23.3.1.1^2,5.1^9,13.0^19,27.0^21,26]hentriaconta-1 (28),2,5 (31), 19,25 (29),26-hexaen-7-yl]-2,3-dimethyl-cyclopropanecarboxamide], the half-inhibitory concentration (IC50) in experiment [1] came out at 4.4 nM; in experiment [2] it was 19.2 nM; in experiment [3], 75.4 nM; in experiment [4], 35.7 nM; in experiment [5], 1.5 nM; in experiment [6], 11.3 nM. The molecule further displayed an IC50 in experiment [7] of 1.5 nM.

For the origin of these results see patent US20240417410A1, “TRICYCLIC COMPOUNDS FOR THE TREATMENT OF CANCER” (Hoffmann-La Roche Inc., priority 2023, published 2024).
